# Source: PubChem BioAssay (NCI)
#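 How tested: cells in 96-well plates exposed to compound for 48 hours at five concentrations. TGI: concentration producing complete growth inhibition.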
# How the values were obtained:
# Test in all cases: growth of human tumour cells (NCI), 48 h
# NCI-H522 lung = tested on: NCI-H522 lung
# MDA-MB-231 breast = tested on: MDA-MB-231 breast
# NCI-H23 lung = tested on: NCI-H23 lung
# NCI-H460 lung = tested on: NCI-H460 lung
# MCF7 breast = tested on: MCF7 breast
# U251 CNS = tested on: U251 CNS
# MOLT-4 leukemia = tested on: MOLT-4 leukemia
# OVCAR-5 ovarian = tested on: OVCAR-5 ovarian
# HCT-116 colon = tested on: HCT-116 colon
# DU-145 prostate = tested on: DU-145 prostate
SMILES,TGI (NCI-H522 lung) [µM],TGI (MDA-MB-231 breast) [µM],TGI (NCI-H23 lung) [µM],TGI (NCI-H460 lung) [µM],TGI (MCF7 breast) [µM],TGI (U251 CNS) [µM],TGI (MOLT-4 leukemia) [µM],TGI (OVCAR-5 ovarian) [µM],TGI (HCT-116 colon) [µM],TGI (DU-145 prostate) [µM]
O=C1/C(=C\c2ccc([N+](=O)[O-])cc2)Sc2scc(-c3ccc(O)c(O)c3)[n+]21,5.34,66.9,44.6,16.5,15.3,20.5,51.3,35.4,75.2,37.2
CSC(SC)=C1C(=O)NN=C1C,> 100,> 100,> 100,> 100,> 100,> 100,> 100,> 100,> 100,> 100
CC(=O)N1c2ccccc2C(C)(C)OC1C(Cl)(Cl)Cl (stereo not given),69.3,> 100,> 100,> 100,94.5,> 100,35.5,> 100,> 100,> 100
O=C(CCCN1CCC2(CC1)C(=O)NC(=O)N2c1ccccc1)c1ccc(F)cc1,> 100,> 100,> 100,> 100,> 100,> 100,> 100,> 100,> 100,> 100
CC(NC1=CC(=O)c2ncccc2C1=O)C(O)c1ccccc1 (stereo not given),24.8,6.94,> 19.8,3.22,7.56,14.3,41.8,29.3,15.2,16.6
O=C(O)C(Cc1ccc2c(c1)CCC2)(Cc1ccc2c(c1)CCC2)C(=O)O,> 100,> 100,> 100,> 100,> 100,> 100,> 100,> 100,> 100,> 100
Oc1c(C2=NNC(c3cccs3)C2)ccc2ccccc12 (stereo not given),60.6,91.2,> 100,43.4,51.7,69.5,30.9,> 100,30.6,61.7
Cc1cc(C)c(S(=O)(=O)N[C@@H](/C=C(\Br)CO)C(C)C)c(C)c1,37,> 100,> 100,85.4,59.4,> 100,75.3,> 100,> 100,> 100
Cc1c2c(c(C)n1-c1ccccc1)C(=O)N(CCSC(=N)N)C2=O,> 100,> 100,> 100,> 100,> 100,> 100,> 100,> 100,> 100,> 100
Cc1ccc(S(=O)(=O)NC(=O)NC(CO)C(=O)O)cc1 (stereo not given),> 100,> 100,> 100,> 100,> 100,> 100,> 100,> 100,> 100,> 100
N#Cc1cccc(C2ON=C(c3ccc([N+](=O)[O-])cc3)N2C23CC4CC(CC(C4)C2)C3)c1 (stereo not given),> 100,> 100,> 100,> 100,> 100,> 100,> 100,31,> 100,> 100
CC(=O)OCC1OC(Nc2ccc3nc(C)n(-c4cccc(C)c4)c(=O)c3c2)C(OC(C)=O)C(OC(C)=O)C1OC(C)=O (stereo not given),> 62.5,> 62.5,> 62.5,> 62.5,> 62.5,> 62.5,> 62.5,> 62.5,> 62.5,> 62.5
O=C1C(C(O)(C(F)(F)Cl)C(F)(F)Cl)CCC1C(O)(C(F)(F)Cl)C(F)(F)Cl (stereo not given),> 10,> 10,6.19,> 10,> 10,> 10,> 10,> 10,5.71,> 10
COc1cc2c(cc1OC)C1Cc3ccccc3CCN1CC2 (stereo not given),> 100,> 100,> 100,> 100,> 100,> 100,> 100,> 100,> 100,> 100
ClC(Cl)(Cl)C1CCOC1n1nc2ccccc2n1 (stereo not given),> 100,> 100,> 100,> 100,> 100,> 100,> 100,> 100,> 100,> 100
CN(C)CCOc1ccc(I)cc1Cc1ccccc1,25,12.3,12.6,26.8,27.5,27.1,20.2,29.7,22.4,31.6
CC12CC3CC/C(=N\O)C(C1)C3(N1CCOCC1)C/C2=N/O (stereo not given),> 100,> 100,> 100,> 100,> 100,> 100,> 100,> 100,> 100,> 100
CSCCC(NCc1c(O)ccc2ccc(=O)oc12)C(=O)O (stereo not given),> 100,> 100,> 100,> 100,> 100,> 100,> 100,> 100,> 100,> 100
